In patent US8377636B2, “Biological markers predictive of anti-cancer response to kinase inhibitors” (OSI Pharmaceuticals, LLC, priority 2007, dated 2013):

Legend:
SW1573 NSCLC cell line = test: Sensitivity of tumor cells to EGFR kinase inhibitor; format: cell-based, human; conditions: phenotype Mesenchymal-like
Method: (§1) The human NSCLC lines H1299, H266, H522, H650, H1437, H1155, Calu1, Hop92, H23, H292, H358, H322, H441, A549, Calu6, H460, H1703 and SW1573 were cultured in the appropriate ATCC recommended supplemented media. Cell extracts were prepared by detergent lysis (50 mM Tris-HCl, pH8, 150 mM NaCl, 1% NP-40, 0.5% NaDeoxycholate, 0.1% SDS) containing protease and phosphatase inhibitors. The soluble protein concentration was determined by micro-BSA assay (Pierce, Rockford Ill.). In experiments monitoring serum stimulation, cells were grown in media with 0.5% FBS for 24 hours followed by addition of FBS to a final concentration of 10% for 10 minutes prior to lysis. In experiments where inhibitor treatment was required, inhibitor was added at the indicated concentration and the cells the stimulated with the indicated ligand. For cell proliferation assays cells were plated, inhibitor added and proliferation measured after 72 hours using the CELLTITERGLO™ cell viability assay (Promega, Madison Wis.).

H522 NSCLC cell line = test: as above; format: cell-based, human; conditions: phenotype Mesenchymal-like
Method: as §1

H23 NSCLC cell line = test: as above; format: cell-based, human; conditions: phenotype Mesenchymal-like
Method: as §1

HOP92 NSCLC cell line = test: as above; format: cell-based, human; conditions: phenotype Mesenchymal-like
Method: as §1

H460 NSCLC cell line = test: as above; format: cell-based, human; conditions: phenotype Mesenchymal-like
Method: as §1

CALU1 NSCLC cell line = test: as above; format: cell-based, human; conditions: phenotype Mesenchymal-like
Method: as §1

CALU6 NSCLC cell line = test: as above; format: cell-based, human; conditions: phenotype Mesenchymal-like
Method: as §1

H226 NSCLC cell line = test: as above; format: cell-based, human; conditions: phenotype Mesenchymal-like
Method: as §1

H1155 NSCLC cell line = test: as above; format: cell-based, human; conditions: phenotype Mesenchymal-like
Method: as §1

H292 NSCLC cell line = test: as above; format: cell-based, human; conditions: phenotype Epithelial
Method: as §1

H322 NSCLC cell line = test: as above; format: cell-based, human; conditions: phenotype Epithelial
Method: as §1

A549 NSCLC cell line = test: as above; format: cell-based, human; conditions: phenotype Mixed
Method: as §1

H1299 NSCLC cell line = test: as above; format: cell-based, human; conditions: phenotype Mesenchymal-like
Method: as §1

H358 NSCLC cell line = test: as above; format: cell-based, human; conditions: phenotype Epithelial
Method: as §1

H1703 NSCLC cell line = test: as above; format: cell-based, human; conditions: phenotype Mesenchymal-like
Method: as §1

H441 NSCLC cell line = test: as above; format: cell-based, human; conditions: phenotype Epithelial
Method: as §1

H1437 NSCLC cell line = test: as above; format: cell-based, human; conditions: phenotype Epithelial
Method: as §1

H650 NSCLC cell line = test: as above; format: cell-based, human; conditions: phenotype Mesenchymal-like
Method: as §1

H292 NSCLC xenograft = test: Xenograft tumor growth inhibition; format: in vivo, CD-1 nu/nu mice; conditions: H292 xenograft in mice; 100 mg/kg once a day for 14 days, oral gavage
Method: (§2) FIG. 9: Sensitivity of NSCLC cell lines to erlotinib In Vivo. Female CD-1 nu/nu mice were implanted with H292 or Calu6 cells and tumor allowed to grow to 200 mm^3. Animals were then either left untreated or treated with 100 mg/kg erlotinib once a day for 14 days. Tumor volume was measured twice weekly.
(§3) Female CD-1 nu/nu mice (Charles River Laboratories, Wilmington, Mass.) were implanted with harvested NSCLC tumor cells in a single subcutaneous site on the flank of the mice in the axillary region. Tumors were allowed to grow to 200±50 mm^3, at which time the animals were sorted into treatment groups of 8 animals per group based on weight (±1 g body weight) and tattooed on the tail for permanent identification. Tumor volumes and body weights were determined twice weekly. The tumor volume was determined by measuring in two directions with vernier calipers and calculated using the formula: Tumor volume=(length×width^2)/2. The data were plotted as the % change in mean values of tumor volume and body weight for each group. The tumor growth inhibition (% TGI) was determined as % TGI=[…]: where Wt is the median tumor volume of the treated group at time x and Wc is the median tumor volume of the control group at time x. TARCEVA® was dosed in a 6% Captisol (CyDex, Inc) in WFI (Water for Injection) solution and all control animals were dosed with an equal volume of the vehicle. […]

Calu6 NSCLC xenograft = test: Xenograft tumor growth inhibition; format: in vivo, CD-1 nu/nu mice; conditions: Calu6 xenograft in mice; 100 mg/kg once a day for 14 days, oral gavage
Method: as §2, §3

Calu1 cells [1] = test: Cell motility, closure of the wound; format: cell-based, human; conditions: 1 or 5 μM, 24 hrs
Method: (§4) FIG. 3: Inhibition of PDGFR activity in NSCLC. A. H1703 cells were treated with increasing concentrations of PDGFR inhibitor 1 (OSI-930) (▪), PDGFR inhibitor 2 (▴) or an EGFR inhibitor (erlotinib) (▾). After 72 hours incubation proliferation of the cells was measured by CellTitreGlo assay and plotted as a % proliferation relative to untreated cells. B. H1703 cells were treated with the PDGFR inhibitor OSI-930 for 2 hours and then left untreated or treated with PDGF (10 ng/ml) for 15 mins. Protein extracts were prepared and immunoblots probed with the indicated antibodies C. H1703 and Calu1 cells were treated with either 1 or 5 μM of PDGFR inhibitor OSI-930 and the effect on closure of the wound analysed after 24 hrs.

H1703 cells [2] = test: Cell motility, closure of the wound; format: cell-based, human; conditions: 1 or 5 μM, 24 hrs
Method: as §4

H1703 cells [3] = test: Cell proliferation, CellTitreGlo assay; format: cell-based, human
Method: as §4
(§5) FIG. 6: Inhibition of FGFR activity in NSCLC. A. H1703 (▪), Calu1 (▴) and H226 (▾) cells were treated with increasing concentrations of FGFR inhibitor (PD173074). After 72 hours incubation proliferation of the cells was measured by CellTitreGlo assay and plotted as a % proliferation relative to untreated cells.
as §1

[4] = tested on: ERK MAP kinase and AKT pathways in H1703 cells; test: Intracellular signaling, immunoblot of pERK and pAKT; format: cell-based, human; parameters: AKT pathway inhibition: dose or concentration left out as unconfirmed
Method: as §4
(§6) FIG. 7: Inhibition of FGFR Signaling in H1703 and H226 NSCLC Cells. H1703 and H226 cells were treated with either […] PD173074 for 2 hours and then left untreated (CON) or treated with 10 ng/ml FGF for 15 min (FGF). Cell lysates were prepared and immunoblots using antibodies against pERK, total ERK, pAKT (ser473), total AKT and β-actin were performed.
as §1, with “Wis.). […]” for “Wis.).”

H226 cells = test: Cell proliferation, CellTitreGlo assay; format: cell-based, human
Method: as §5, §1

Calu1 cells [5] = test: Cell proliferation, CellTitreGlo assay; format: cell-based, human
Method: as §5, §1

H358 cells = test: Cell proliferation, CellTitreGlo assay; format: cell-based, human
Method: as §1

[6] = tested on: ERK MAP kinase and AKT pathways in H226 cells; test: Intracellular signaling, immunoblot of pERK and pAKT; format: cell-based, human
Method: as §6
as §1, with “Wis.). […]” for “Wis.).”

[7] = tested on: ERK MAP kinase and AKT pathways in Calu1 cells; test: as above; format: cell-based, human; conditions: presence or absence of exogenously added ligand
Method: as §1
Protein immunodetection was performed by electrophoretic transfer of SDS-PAGE separated proteins to nitrocellulose, incubation with antibody and chemiluminescent detection (PicoWest; Pierce, Rockford, Ill.). […]

[8] = 0.5% FCS and PDGF (mixed AA, AB and BB forms) added
[9] = increasing concentrations, 72 hours
[10] = for 2 hours, basal and FGF (10 ng/ml, 15 min) stimulated

## C#Cc1cccc(Nc2ncnc3cc(OCCOC)c(OCCOC)cc23)c1 [Erlotinib, [6,7-bis(2-methoxyethoxy)-4-quinazolin-4-yl]-(3-ethynylphenyl) amine]
SW1573 NSCLC cell line
  Erlotinib Senistivity: Insensitive
H522 NSCLC cell line
  Erlotinib Senistivity: Insensitive
H23 NSCLC cell line
  Erlotinib Senistivity: Insensitive
H23 NSCLC cell line; listed as erlotinib
  Erlotinib Senistivity: insensitive
HOP92 NSCLC cell line
  Erlotinib Senistivity: Insensitive
HOP92 NSCLC cell line; listed as erlotinib
  Erlotinib Senistivity: insensitive
H460 NSCLC cell line
  Erlotinib Senistivity: Insensitive
CALU1 NSCLC cell line
  Erlotinib Senistivity: Insensitive
CALU6 NSCLC cell line
  Erlotinib Senistivity: Insensitive
H226 NSCLC cell line
  Erlotinib Senistivity: Insensitive
H1155 NSCLC cell line
  Erlotinib Senistivity: Insensitive
H292 NSCLC cell line
  Erlotinib Senistivity: Sensitive
H322 NSCLC cell line
  Erlotinib Senistivity: Sensitive
A549 NSCLC cell line
  Erlotinib Senistivity: Intermediate
H1299 NSCLC cell line
  Erlotinib Senistivity: Insensitive
H358 NSCLC cell line
  Erlotinib Senistivity: Sensitive
H1703 NSCLC cell line
  Erlotinib Senistivity: Insensitive
H1703 NSCLC cell line; listed as erlotinib
  Erlotinib Senistivity: insensitive
H441 NSCLC cell line
  Erlotinib Senistivity: Sensitive
H1437 NSCLC cell line
  Erlotinib Senistivity: Insensitive
H650 NSCLC cell line
  Erlotinib Senistivity: Insensitive
H292 NSCLC xenograft
  Xenograft growth, tumor volume: sensitive to EGFR inhibition and shows a reduction in tumor volume during the dosing period
Calu6 NSCLC xenograft
  Xenograft growth, tumor volume: insensitive to EGFR inhibition

## O=C(Nc1ccc(OC(F)(F)F)cc1)c1sccc1NCc1ccnc2ccccc12 [OSI-930]
Calu1 cells [1]
  Cell motility (closure of the wound): inhibition of cell motility
H1703 cells [2]
  Cell motility (closure of the wound): inhibition of cell motility
H1703 cells [3]; [8]
  Inhibition of cell growth (proliferation): inhibited more potently
H1703 cells [3]; 10% FCS, 72 hours
  Inhibition of cell growth (proliferation): Inhibition of cell growth
[4]; inhibitor 2 hours, basal (10% FCS) and ligand stimulated (PDGF 10 ng/ml, 15 mins)
  Phosphorylation of ERK MAP kinase and AKT (serine 473): reduced phosphorylation of ERK MAP kinase and AKT (on serine 473)
H226 cells; [8]
  Inhibition of cell growth (proliferation): failed to show any enhanced growth inhibition
H226 cells; 10% FCS, 72 hours
  Inhibition of cell growth (proliferation): not growth inhibited
Calu1 cells [5]; [8]
  Inhibition of cell growth (proliferation): failed to show any enhanced growth inhibition
Calu1 cells [5]; 10% FCS, 72 hours
  Inhibition of cell growth (proliferation): not growth inhibited
H358 cells; [8]
  Inhibition of cell growth (proliferation): failed to show any enhanced growth inhibition
H358 cells; 10% FCS, 72 hours
  Inhibition of cell growth (proliferation): only observed in H1703 cells
[6]; basal and PDGF ligand stimulated
  Inhibition of ERK and AKT pathways: only showed ligand induced inhibition of ERK and AKT pathways

## CCN(CC)CCCCNc1ncc2cc(-c3cc(OC)cc(OC)c3)c(NC(=O)NC(C)(C)C)nc2n1 [PD173074]
H1703 cells [3]; [9]
  Growth inhibition (proliferation): growth inhibited
[4]; [10]
  Activation of the ERK MAP kinase pathway: inhibited
[4]; for 2 hours, basal and FGF stimulated
  AKT pathway inhibition: only inhibited after ligand stimulation
[7]
  Signaling (ERK, AKT): unaffected
H226 cells; [9]
  Growth inhibition (proliferation): growth inhibited
Calu1 cells [5]; [9]
  Growth inhibition (proliferation): little effect
[6]; [10]
  Activation of the ERK MAP kinase pathway: inhibited
